Test [1] has as its system SW-620. The test can be described thus: Antiproliferative activity against human SW620 cells after 72 hrs by MTT assay. In kind it is functional, cell-based. Conditions: SW-620, 72 h. (Tetrazolium dyes change colour on reduction, which living cells bring about.)
For test [2], the system named is HeLa. The test can be described thus: Antiproliferative activity against human HeLa cells after 72 hrs by MTT assay. The class given is functional, cell-based.
Test [3] concerns SK-BR-3. The experiment in a line: Antiproliferative activity against human SK-BR-3 cells after 72 hrs by MTT assay. Conditions: SK-BR-3, 72 h. The class given is functional, cell-based.
Test [4] relates to BJ. The experiment in a line: Antiproliferative activity against human BJ cells after 72 hrs by MTT assay. The class given is cell-based.
Test [5] concerns MIA PaCa-2. The test can be described thus: Antiproliferative activity against human MIAPaCa2 cells after 72 hrs by MTT assay. The class given is functional, cell-based. The note with it: MIA PaCa-2, 72 h.
For test [6], the system named is MCF7. The test can be described thus: Antiproliferative activity against human MCF7 cells after 72 hrs by MTT assay. In kind it is functional, cell-based. Conditions: MCF7, 72 h.

Bounds are passed on as bounds.

Our source for the IC50 values is ChEMBL document CHEMBL2062361, “Synthesis and antiproliferative evaluation of some new amidino-substituted bis-benzothiazolyl-pyridines and pyrazine” (Eur J Med Chem, 2012).

As usually defined, the IC50 is the concentration needed to halve the response being measured.

In the case of `c1cc2nc(-c3ccc(-c4nc5ccc(C6=NCCN6)cc5s4)nc3)sc2cc1C1=NCCN1`, the concentration for half-maximal inhibition (IC50) in test [1] was 2.8 µM; in test [2] it was 3.4 µM; in test [3], 3.4 µM; in test [4], 0.34 µM; in test [5], 4.4 µM; in test [6], 4.4 µM.

Consider `N=C(N)c1ccc2nc(-c3cncc(-c4nc5ccc(C(=N)N)cc5s4)c3)sc2c1`, for which the IC50 in test [1] is above 100 µM; in test [2], above 100 µM; in test [3], above 100 µM; in test [4], 15 µM; in test [5], 86.7 µM; in test [6], above 100 µM.

Turning to `c1cc2nc(-c3cncc(-c4nc5ccc(C6=NCCN6)cc5s4)c3)sc2cc1C1=NCCN1`, the half-maximal inhibitory concentration (IC50) in test [1] stood at 0.42 µM; in test [2], 0.3 µM; in test [3] it was 0.5 µM; in test [4] it was 0.16 µM; in test [5], 6.6 µM; in test [6] it was 0.9 µM.

As to `N=C(N)c1ccc2nc(-c3ccnc(-c4nc5ccc(C(=N)N)cc5s4)c3)sc2c1`, the 50% inhibitory concentration (IC50) in test [1] was above 100 µM; in test [2], above 100 µM; in test [3], above 100 µM; in test [4] it was 2.92 µM; in test [5] it was 61.1 µM; in test [6], 78.9 µM.

`c1cc2nc(-c3cnc(-c4nc5ccc(C6=NCCN6)cc5s4)cn3)sc2cc1C1=NCCN1`: the IC50 in test [1] was 1.8 µM; in test [2], 1.9 µM; in test [3], 0.9 µM; in test [4], 0.07 µM; in test [5], 5.1 µM; in test [6] it was 1.2 µM.
